Measured values as given in ChEMBL document CHEMBL5512599, “Synthetic non-toxic anti-biofilm agents as a strategy in combating bacterial resistance” (Eur J Med Chem, 2023).
In brackets after ≈: the same amount, converted by molar mass.

Key:
Staphylococcus aureus [1] = test: Antibiofilm activity against Methicillin-resistant Staphylococcus aureus ATCC BAA-4A assessed as inhibition of biofilm formation; assay type: functional, organism-based
Staphylococcus aureus [2] = test: Antibiofilm activity against Staphylococcus aureus ATCC 25923 at 25 ug/ml measured after 24 hrs by crystal violet staining based analysis relative to control; assay type: functional; conditions: dose 25 µg/ml
Pseudomonas aeruginosa [3] = test: Antibiofilm activity against Pseudomonas aeruginosa PA14 assessed as inhibition of biofilm formation incubated for 24 hrs by microscopic analysis; assay type: functional, organism-based; conditions: PA14, 24 h
Pseudomonas aeruginosa [4] = test: Antibiofilm activity against Pseudomonas aeruginosa PAO1 assessed as inhibition of biofilm formation incubated at 100 uM incubated for 24 hrs by crystal violet staining based analysis relative to control; assay type: functional; design: scale not given: the % may be the effect or the level left
Pseudomonas aeruginosa [5] = test: Antibiofilm activity against Pseudomonas aeruginosa ATCC 10145 assessed as reduction in biofilm formation at 20 uM incubated for 24 hrs by absorbance based assay relative to control; assay type: functional; design: scale not given: the % may be the effect or the level left
Staphylococcus aureus [6] = test: Antibiofilm activity against Staphylococcus aureus ATCC 33862 assessed as reduction in biofilm formation at 20 uM incubated for 24 hrs by absorbance based assay relative to control; assay type: functional; design: scale not given: the % may be the effect or the level left
[7] = target: T1, Transcriptional regulator MvfR (Pseudomonas aeruginosa PA14, UniProt A0A072ZLE6); test: Inhibition of PqsR-mediated quorum sensing system in Pseudomonas aeruginosa PAO1 assessed as reduction in pyocyanin production
T1 sequence (A0A072ZLE6 whole entry): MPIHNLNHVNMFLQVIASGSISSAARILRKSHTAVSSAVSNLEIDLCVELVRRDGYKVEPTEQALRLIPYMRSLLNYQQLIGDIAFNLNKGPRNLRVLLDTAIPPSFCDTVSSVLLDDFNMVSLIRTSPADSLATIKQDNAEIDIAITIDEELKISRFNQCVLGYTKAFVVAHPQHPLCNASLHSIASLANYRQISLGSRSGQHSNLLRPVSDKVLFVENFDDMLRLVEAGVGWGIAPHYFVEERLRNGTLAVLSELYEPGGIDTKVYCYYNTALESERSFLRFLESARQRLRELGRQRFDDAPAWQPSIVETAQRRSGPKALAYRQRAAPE

Pseudomonas aeruginosa [8] = test: Antibiofilm activity against Pseudomonas aeruginosa PAO1 assessed as inhibition of biofilm formation at 100 uM relative to control; assay type: functional; design: scale not given: the % may be the effect or the level left
[9] = Inhibition of quorum sensing system in Pseudomonas aeruginosa PAO1 assessed as inhibition of pyocyanin production at 256 ug/ml incubated for 24 hrs by absorbance based assay
Klebsiella pneumoniae = test: Antibiofilm activity against Klebsiella pneumoniae ATCC 13882 assessed as inhibition of biofilm formation incubated for 24 hrs by crystal violet staining based broth microdilution method; assay type: functional, organism-based; conditions: ATCC 13882, 24 h
Pseudomonas aeruginosa [10] = test: Antibiofilm activity against Pseudomonas aeruginosa PAO1 assessed as inhibition of biofilm formation incubated at 15 uM relative to control; assay type: functional; design: scale not given: the % may be the effect or the level left
[11] = target: T1, Transcriptional regulator MvfR; test: Antagonist activity at PqsR in wild-type Pseudomonas aeruginosa PAO1-L
Pseudomonas aeruginosa [12] = test: Antibiofilm activity against Pseudomonas aeruginosa PAO1 assessed as reduction in biofilm formation at 100 uM incubated for 24 hrs by crystal violet staining based analysis relative to control; assay type: functional; design: scale not given: the % may be the effect or the level left
[13] = Inhibition of quorum sensing system in Pseudomonas aeruginosa PA14 assessed as inhibition of pyocyanin production
Staphylococcus aureus [14] = test: Antimicrobial activity against Staphylococcus aureus ATCC 25923 assessed as reduction in bacterial growth at 0.25 uM incubated for 16 hrs by broth dilution method relative to control; assay type: functional; design: scale not given: the % may be the effect or the level left
Staphylococcus aureus [15] = test: Antimicrobial activity against Staphylococcus aureus ATCC 25923 assessed as reduction in bacterial growth at 0.12 uM incubated for 16 hrs by broth dilution method relative to control; assay type: functional; design: scale not given: the % may be the effect or the level left
Staphylococcus aureus [16] = test: Antimicrobial activity against Staphylococcus aureus ATCC 25923 assessed as reduction in bacterial growth at 0.5 uM incubated for 16 hrs by broth dilution method relative to control; assay type: functional; design: scale not given: the % may be the effect or the level left
Staphylococcus aureus [17] = test: Antibiofilm activity against methicillin-resistant Staphylococcus aureus assessed as inhibition of biofilm formation incubated for overnight by crystal violet staining based microtiter plate assay; assay type: functional, organism-based
Enterococcus faecalis [18] = test: Antibiofilm activity against Enterococcus faecalis ATCC 29212 assessed as biofilm eradication incubated for 20 mins by crystal violet staining based analysis; assay type: functional
Enterococcus faecalis [19] = test: Antibacterial activity against Enterococcus faecalis ATCC 29212 assessed as bacterial growth inhibition incubated for 15 to 18 hrs by Muller hinton broth based dilution assay; assay type: functional; conditions: time 15-18 hrs
[20] = Inhibition of Quorum sensing system Las in Pseudomonas aeruginosa PAO1 assessed as reduction in interaction with LasR regulator
Staphylococcus aureus [21] = test: Antibacterial activity against Staphylococcus aureus ATCC 25923 assessed as reduction in bacterial growth incubated for 18 to 24 hrs by broth microdilution method; assay type: functional; conditions: time 18-24 hrs
[22] = Inhibition of Staphylococcus aureus sortase A by FRET assay
[23] = test system: Staphylococcus epidermidis; test: Antibacterial activity against Staphylococcus epidermidis RP62A assessed as reduction in bacterial growth incubated for 18 to 20 hrs by broth microdilution assay; assay type: functional; conditions: time 18-20 hrs
Staphylococcus aureus [24] = test: Antibacterial activity against Staphylococcus aureus ATCC 29213 assessed as reduction in bacterial growth incubated for 18 to 24 hrs by broth microdilution method; assay type: functional; conditions: time 18-24 hrs
Staphylococcus aureus [25] = test: Antibacterial activity against Staphylococcus aureus ATCC 6538 assessed as reduction in bacterial growth incubated for 18 to 24 hrs by broth microdilution method; assay type: functional; conditions: time 18-24 hrs

CCCCCc1ccc(C(=O)NCCn2cc(CCCCCc3[nH]cnc3-c3ccoc3)nn2)cc1
IC50 (Staphylococcus aureus [1]): 3.7 µM

Cc1nn(C)c(NC(=O)c2ccc([N+](=O)[O-])cc2)c1[N+]#N
Activity (Staphylococcus aureus [2]): 96%

CCCCCCCNC(=O)CCc1c[nH]c(N)n1
IC50 (Pseudomonas aeruginosa [3]): 43 µM

O=C(CCCNc1ccc(F)cc1)NC1CCOC1=O (stereo unspecified)
Activity (Pseudomonas aeruginosa [4]): 70%

CCCCCCCCCCCCCC(=O)Nc1c(N)[nH]c2ccccc2c1=O
Activity (Pseudomonas aeruginosa [5]): >=50%
Activity (Staphylococcus aureus [6]): >=50%

Clc1ccc2c(NCCCCCCCCNCc3cc4ccccc4s3)ccnc2c1
IC50 [7]: 30 µM

N#Cc1ccnc(C(F)F)c1
Activity (Pseudomonas aeruginosa [8]): 73%
IC50 [9]: 17 µM

CCCCCCCCCCCCCCCC(=O)Nc1c(N)[nH]c2ccccc2c1=O
Activity (Pseudomonas aeruginosa [5]): >=50%
Activity (Staphylococcus aureus [6]): >=50%

Nc1nccc(-c2cccc(NC(=O)c3cc(Cl)cc(Cl)c3)c2)n1
IC50 (Klebsiella pneumoniae): 26.4 µM

CCCCCCC(CCCCCC)NC(=O)CCCc1c[nH]c(N)n1
IC50 (Pseudomonas aeruginosa [3]): 16 µM

Cc1cccc(NC(=O)CC(=O)CSC(=S)N[C@@H]2CCOC2=O)c1
Activity (Pseudomonas aeruginosa [10]): 35%

O=C(c1ccc(Cl)cc1)c1ccnc(C(F)F)c1
Activity (Pseudomonas aeruginosa [8]): 71%
IC50 [9]: 35 µM

CCCCCCCCCc1nc2cc(Cl)ccc2c(=O)n1N
IC50 [11]: 1200 nM

COc1cccc(NC(=O)CC(=O)CSC(=S)N[C@@H]2CCOC2=O)c1
Activity (Pseudomonas aeruginosa [10]): 35%

Clc1ccc2c(NCCCCCCCCNCc3cc4ccccc4o3)ccnc2c1
IC50 [7]: 25 µM

O=C(CCCOc1cccc(Br)c1)NC1CCSC1=O (stereo unspecified)
Activity (Pseudomonas aeruginosa [12]): 62%
IC50 [13]: 8 µM

Cc1ccc(C(=O)c2nn(-c3nc(-c4ccccc4)c(-c4sc(-n5nc(C(=O)c6ccc(C(F)(F)F)cc6)c(C#N)c5N)nc4-c4ccccc4)s3)c(N)c2C#N)cc1
Activity (Staphylococcus aureus [14]): 20%
Activity (Staphylococcus aureus [15]): 15%
Activity (Staphylococcus aureus [16]): 35%

CCCCOc1ccc(/C=C(\C)Cn2cc(CCCCCc3c[nH]c(N)n3)nn2)cc1
IC50 (Staphylococcus aureus [17]): < 10 µM

NC(=O)c1cc(-c2csc(-c3ccc(-c4cnc(-c5ccccc5)s4)cc3)n2)ccc1O
MBEC (Enterococcus faecalis [18]): 0.008 µg/mL
MIC (Enterococcus faecalis [19]): 0.25 µg/mL (≈ 0.549 µM)

CCCCCc1ccc(C(=O)NCCn2cc(CCCCCc3c[nH]c(N)n3)nn2)cc1
IC50 (Staphylococcus aureus [17]): < 7.2 µM

CCCCCCCC(=O)NC1CCCC1
IC50 [20]: 250 µM

CCCCCCCCCCCc1c[nH]c(N)n1
IC50 (Pseudomonas aeruginosa [3]): 19 µM

CCCCCCCCCCCCCCCC(=O)Nc1cc(=O)c2ccccc2[nH]1
Activity (Pseudomonas aeruginosa [5]): >=50%
Activity (Staphylococcus aureus [6]): >=50%

CC(=O)/C(=N\Nc1ccc(Cl)c(Cl)c1)C(=O)O
MIC (Staphylococcus aureus [21]): > 270 µM
IC50 [22]: 50 µM
MIC [23]: > 270 µM
MIC (Staphylococcus aureus [24]): > 270 µM
MIC (Staphylococcus aureus [25]): > 270 µM

CCCCCCCCCCCCCC(=O)Nc1cc(=O)c2ccccc2[nH]1
Activity (Pseudomonas aeruginosa [5]): >=50%
Activity (Staphylococcus aureus [6]): >=50%

COC(=O)c1ccnc(C(F)F)c1
Activity (Pseudomonas aeruginosa [8]): 85%
IC50 [9]: 27 µM
